According to patent publication US20070276032A1, “Use of 8-Prenylnaringenin for Hormone Replacement Therapy” (priority 2003, published 2007):

Columns and labels:
ERE-Luc = assay: Estrogenic activity in the estrogen reporter mouse ERE-Luc model, luciferase activity in organs (Example 5); format: in vivo, mice
Description: In order to avoid experimental noise male animals were used.
Fourtyfive heterozygous male ERE-Luc mice of two months of age were fed with soy-free diet for two weeks before assigning them to each experimental group then all the mice were injected intraperitoneally (i.p.) with 250 μl of an oily solution containing the following compounds: • 1. Experimental group 1: vehicle • 2. Experimental group 2: 17β-estradiol at 1.5 μg/kg • 3. Experimental group 3: 2S(−)-8-PN at 30 mg/kg • 4. […] Experimental group 5: genistein at 30 mg/kg.
The treatment was carried out in experimental groups of three mice each and repeated three times (therefore numbers reflect the average of […] determinations on a total of 9 animals).
Six hours after the injection, mice were sacrificed by cervical dislocation and organs were dissected and frozen on dry ice. The following organs were analyzed for lucifererase activity by enzymatic assay: prostate, liver, bone, brain.
Data represent means ±standard deviation of N=9 animals per group.
Analysis of variance (ANOVA) for overall comparison was followed by Tukey test for paired comparisons. All statistical procedures were carried out with Systat and SAS (*P<0.05; **P<0.01).

ovariectomized rats = assay: Relative uterus weight, 8-PN racemic, 2S(−) 8-PN and estradiol hemihydrate in ovariectomized rats (Example 4); format: in vivo, Sprague-Dawley rats; details: OVX rats
Description: The aim of the study was to directly compare the effects of Prenylnaringenin (racemate) and 2S(−) 8-Prenylnaringenin to the effects of estradiol hemihydrate on bone mineral density and uterine weight on 3-month-old ovariectomized rats using identical formulations. In addition, the effects of estradiolhemihydrate in two vehicles (oily, aqueous) were examined for influence of formulations. The substances were administered subcutaneously(s.c.) seven days a week beginning the day after ovariectomy. At the end of the study, uterine weight and bone mineral density (BMD) of tibia were measured.
Forty-one female Sprague-Dawley rats, 12-14 weeks of age were randomized into six groups, 6-8 animals in each. Five groups were ovariectomized (OVX) and one group was sham-operated (SHAM). Treatments started on the day following operation and continued for 28 days. The animals were treated s.c. once a day seven times a week as follows. Group 1 (SHAM vehicle group) and group 2 (OVX vehicle group) were given the vehicle 30% hydroxypropyl-β-cyclodextrin (HP-β-CD). Groups 3 and 4 were administered 4 μg/kg/d of estradiol hemihydrate in vehicle benzyl benzoate/ricinus oil (B/R) and in vehicle HP-β-CD, respectively. Groups 5 and 6 were given 20 mg/kg/d of 2S(−)8-Prenylnaringenin and racemic 8-Prenylnaringenin, respectively, both in vehicle HP-β-CD. At the end of the study, left tibiae were excised for the ex vivo BMD […] were taken from all dosing solutions on the first and last day of use.
Vehicle 1 (used in the groups 1 and 2): 30% hydroxypropyl-β-cyclodextrin and 0.3% NaCl (w/v), 5% ethanol (v/v) in Aqua sterilisata, pH 7.4.
Vehicle 2 (used when preparing dosing solutions of the groups 4, 5 and 6): 30% hydroxypropyl-β-cyclodextrin and 0.3% NaCl (w/v) in Aqua sterilisata, pH 7.4.
Vehicle 3 (used when preparing a dosing solution of the group 3): benzyl benzoate/ricinus oil (B/R) 1+4, v/v.

[1] = ERE-Luc mice, at the dosages used
[2] = s.c. 28 days, 20 mg/kg/d in HP-β-CD, calculated as percentage of body weight

CC(C)=CCc1c(O)cc(O)c2c1O[C@H](c1ccc(O)cc1)CC2=O [2S(−)8-PN, 2S(−) 8-Prenylnaringenin]
agonist profile in bone and prostate compared with the other compounds (ERE-Luc; [1]): much stronger agonist profile in bone and prostate when compared to the other compounds
estrogenic activity in liver compared with the other compounds (ERE-Luc; [1]): almost identical to that of the other compounds
Luciferase activity, Bone (ERE-Luc; male ERE-Luc mice, i.p. 30 mg/kg, six hours after the injection, controls 2.8): 5.5 ** arbitrary units
Luciferase activity, Brain (ERE-Luc; male ERE-Luc mice, i.p. 30 mg/kg, six hours after the injection, controls 6.5): 8.0 arbitrary units
Luciferase activity, Liver (ERE-Luc; male ERE-Luc mice, i.p. 30 mg/kg, six hours after the injection, controls 7.6): 12.5 ** arbitrary units
effect on the uterus and body weight compared with estradiol in the same vehicle (HP-β-CD) (ovariectomized rats; 20 mg/kg/d vs estradiol 4 μg/kg/d, same bone effective dose): much lower effect on the uterus and body weight than estradiol at the same bone effective dose
Relative uterus weight, Mean (ovariectomized rats; [2]): 0.067
Relative uterus weight, Median (ovariectomized rats; [2]): 0.067
